According to ChEMBL document CHEMBL1148302, “Discovery of diarylacrylonitriles as a novel series of small molecule sortase A inhibitors” (J Med Chem, 2004):

Target: T1, Sortase A (Staphylococcus aureus, UniProt Q9S446)
T1 sequence (Q9S446 whole entry): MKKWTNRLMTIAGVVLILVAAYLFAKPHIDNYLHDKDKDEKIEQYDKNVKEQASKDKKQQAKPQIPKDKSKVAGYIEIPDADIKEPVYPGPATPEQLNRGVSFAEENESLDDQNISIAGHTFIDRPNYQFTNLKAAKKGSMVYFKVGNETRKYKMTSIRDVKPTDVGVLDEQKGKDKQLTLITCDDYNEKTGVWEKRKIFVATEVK
Experiment: Inhibitory activity towards SrtA (sortase A)

COc1ccc(/C(C#N)=C/c2cc(OC)cc(OC)c2)cc1
IC50: 25.5 µM

COc1ccc(/C(C#N)=C/c2cccc(OC)c2)cc1
IC50: 17.4 µM

COc1ccc(CCc2ccc(OC)cc2)cc1
IC50: > 1000 µM

COC(=O)/C(=C\c1ccc(OC)cc1)c1ccc(OC)cc1
IC50: 909 µM

COC(=O)C(Cc1ccc(OC)cc1)c1ccc(OC)cc1 (stereo unspecified)
IC50: > 1000 µM

COc1ccc(/C=C\c2ccc(OC)cc2)cc1
IC50: > 1000 µM

COc1ccc(/C(C#N)=C/c2ccc(OC)c(OC)c2)cc1
IC50: 23 µM

COc1ccc(/C(C#N)=C/c2cc(OC)ccc2OC)cc1
IC50: 9.24 µM

COc1ccc(CC(C#N)c2ccc(OC)cc2)cc1 (stereo unspecified)
IC50: > 1000 µM

COc1ccc(/C=C/c2ccc(OC)cc2)cc1
IC50: > 1000 µM

COC(=O)/C(=C/c1ccc(OC)cc1)c1ccc(OC)cc1
IC50: 231 µM

COc1ccc(/C(C#N)=C/c2ccccc2OC)cc1
IC50: 36.2 µM

COc1ccc(/C=C(/C#N)c2ccc(OC)cc2)cc1
IC50: 187 µM

COc1ccc(/C=C(/C(N)=O)c2ccc(OC)cc2)cc1
IC50: 476 µM

COc1ccc(/C=C(/C(=O)O)c2ccc(OC)cc2)cc1
IC50: > 1000 µM

COc1ccc(/C=C(\C#N)c2ccc(OC)cc2)cc1
IC50: 27.9 µM
